# Test results published in publication PMC3912015, “Synthetic Multivalent Antifungal Peptides Effective against Fungi” (PLoS ONE, 2014).
# Where two headings read alike, the source gives them in different places. Bridge positions count the residues as written; N and C are the ends. Peptide text beside a SMILES is read from it. I, II: the chains in the order shown.
# Assays:
# [1] = type: biochemical
# Method: Small unilamellar vesicles (SUVs) were prepared using PC/PE/PI or PS lipids (5∶2.5∶2.5) containing 15 wt% ergosterol or PC/Cholesterol (10∶1). For the preparation of PC/PE/PI or PS/Erg SUV, the lipids were dissolved in chloroform/methanol (2∶1, v/v) in a glass tube. Ergosterol was dissolved in same solvent and added to lipid mixture to make final ergosterol content of 15 wt%. The Lipid-ergosterol mixture was dried using nitrogen gas to form lipid layer. The film was hydrated in a buffer containing 20 mM PBS (pH 7), vortexed and sonicated. Each cycle of sonication (5 sec, 40°C) was followed by freezing in liquid nitrogen and thawing on a water bath kept at 37°C. The procedure was repeated 5–6 times until an optically clear dispersion appeared. The SUV was divided into two parts. To the first part 50 mM calcein was added and incubated for 1 h. The excess calcein was removed by injecting 100 µL of the calcien-loaded SUV’s into a Ultrahydrogel™ 250 (7.8 mm × 300 mm) column equilibrated with 20 mM PBS (pH 7.0) and eluted isochratically at a flow rate of 1 mL/min for 1.5 column volumes. The calcein-loaded liposomes were mixed with calcein-free liposome (1∶1) to adjust final liposome concentration. Peptide concentration was added to obtain 1∶30 or 1∶15 peptide:liposome ratio. Changes in the fluorescence signal after addition of peptide or Triton X-100 was measured on a PTI spectrofluorometer, using an excitation wavelength of 480 nm and emission wavelength of 512 nm. The Percentage calcein released at each time point was calculated using the equation, [drawing 1]
# Where A0 is the observed fluorescence intensity upon addition of peptides, Amin is the average intensity at the baseline (before peptide addition), Amax is the average intensity at the saturation phase after adding 1% Triton X-100. Similar protocol was followed for the preparation of PC/Cholesterol SUVs.
# C. albicans ATCC10231 = assay: microbe, parasite or virus in culture; type: cell-based
# Method: (§1) The yeast strains were cultivated and suspended in Sabouraud’s Dextrose (SD) broth diluted to one sixth at a starting OD600 = ∼0.08 in a flat-bottomed microtitre plate. A serial dilution of peptide in the same broth was mixed with the inoculum to give a final peptide concentration of 0.4–22 µM. The antifungal activity was assessed by monitoring the OD600 in cycles of 30 minutes and an orbital shaking at 100 rpm using an Infinite M200 microplate reader (Tecan Group Ltd., Switzerland) for 24/48 h at 37°C. Cultures without peptides were used as positive controls and broth alone or with 22 µM peptide served as negative controls. The minimum concentration required for complete inhibition was assessed by both visible observations as well as by measuring the OD600 and taken as the MIC. Each experiment was repeated in triplicates. For studying the effects of metal ions, SD broth was adjusted with appropriate concentrations of salts to yield a final concentration of 100 and 135 mM for NaCl and KCl and 0.5–2 mM for CaCl2 and MgCl2. MIC determinations were carried out as described above. C. albicans ATCC10231 cells and salts in broth were taken as a positive control. Salts alone (NaCl, KCl, and CaCl2 and MgCl2) in broth or with 22 µM peptide served as a negative control. The effect of 5% human serum on the activities of B4010 against two C. albicans clinical isolates was determined. The human male serum was centrifuged at 13,000 rpm for 10 mins in order to remove the lipids and the supernatant was collected. The MIC values against clinical isolates of C. albicans 2672R and C. albicans 1976R were determined both in standard medium (SD broth) as well as in standard medium containing 5% serum supernatant as before.
# C. albicans ATCC2091 = assay: microbe, parasite or virus in culture; type: cell-based
# Method: as §1
# C. albicans ATCC24433 = assay: microbe, parasite or virus in culture; type: cell-based
# Method: as §1
# C. albicans DF2672R [2] = assay: microbe, parasite or virus in culture; type: cell-based
# Method: as §1
# C. albicans DF1976R = assay: microbe, parasite or virus in culture; type: cell-based
# Method: as §1
# C. albicans DF2672R [3] = assay: Time-kill kinetics assay; type: cell-based
# Method: (§2) The time-kill kinetics of B4010 was determined against two strains of C. albicans (ATCC 10231 and DF2672R). The cultures were grown overnight in SD broth and the cell concentration was adjusted to 10^5–10^6 CFU/mL with phosphate buffer. The peptide or antifungals were added to the individual cultures. […] The test solution was incubated at 37°C with constant shaking. 100 µL of the suspension was withdrawn at predetermined time points, serially diluted (10^2 or 10^3 fold) and poured into the SDA plate. The plate was incubated for 48 h at 37°C for colony counting. The data were expressed in terms of % fungal viability relative to the positive control.
# [4] = Isothermal titration calorimetry; type: binding; settings: PC SUVs, 15% ergosterol, 25°C
# Method: ITC experiments were performed using a Microcal VP-ITC Calorimeter (Microcal, Northampton, MA, USA). SUVs, B4010, and polyene antifungals were dissolved in 10 mM HEPES buffered saline at pH 7.2. […] A total of 40 injections were performed and the heat of reaction produced by each injection was determined by integration of heat flow traces. In a separate experiment, the heat of dilution was determined by titrating SUVs into the buffer solution (without peptide). The heat of dilution was subtracted from the heat changes determined in the peptide/antifungal-liposome experiments.
# rabbit red blood cells = assay: Haemolytic assay; type: cell-based; settings: 4% rabbit erythrocytes, 1 h
# Method: Haemolytic activity of peptides and antifungal drugs were determined against rabbit red blood cells. Briefly, serial dilution of peptides/antifungals in PBS was mixed with rRBC (final concentration 4% v/v), incubated at 37°C for 1 h and centrifuged at 3000 rpm for 10 minutes. The release of hemoglobin in the supernatant was monitored by measuring the hemoglobin absorbance at 576 nm. The readings from cell suspension in PBS (without any additives) or 1% Triton-X100 were used as 0% or 100% haemolysis.
# [5] = tested on: clinical isolates of C. albicans 2672R and C. albicans 1976R; assay: MIC against two clinical isolates, with or without 5% human serum; type: cell-based; settings: Candida albicans; standard medium without serum
# Method: as §1
# [6] = tested on: human conjunctival epithelial cells (IOBA-NHC); assay: cells; type: cell-based; settings: 24 h
# Method: (§3) Immortalized normal human conjunctival epithelial cells (IOBANHC) were a gift from Yolanda Diebold at the University of Valladolid, Spain [31]. IOBA-NHC cells were cultured under standard conditions (humidified atmosphere of 5% CO2 at 37°C) in DMEM/F12 supplemented with 1 µg/ml bovine pancreas insulin, 2 ng/ml mouse epidermal growth factor, 0.1 µg/ml cholera toxin, 5 µg/ml hydrocortisone, 10% fetal bovine serum (FBS), 50 UI/ml penicillin, and 50 UI/ml streptomycin. Cells from passages 50–80 were used in all experiments. Every day, normal culture development was observed by phase-contrast microscopy. Cells were removed by gentle trypsin incubation at confluence and counted. They were seeded into 96 well culture plates (Corning, Schiphol-Rijk, The Netherlands) for microtitration analysis of flow cytotoxicity assay (∼10,000 cells/well). Cultures were kept at 37°C for 24 h. Subconfluent cells (culture surface covering nearly 70%) were then exposed to various peptide concentrations (0.22–225 µM). Cytotoxicity was measured periodically using MultiTox-Fluor Multiplex assay kit (Promega, WI, USA) by measuring the AFC fluorescence (λex = 485 and λem = 520 nm). We report the cell viability after 24 h incubation of the cells with the peptides since there was no detectable toxicity even after 8 h of incubation.
# in vitro = type: cell-based, human; settings: human
# Method: as §3
# C. albicans ATCC 10231 = assay: Time-kill kinetics assay; type: cell-based; settings: 16× MIC
# Method: as §2
# F. solani DF1500 = assay: microbe, parasite or virus in culture; type: cell-based; settings: Fusarium solani; F. solani DF1500
# F. solani DM3782 = assay: microbe, parasite or virus in culture; type: cell-based; settings: Fusarium solani; F. solani DM3782
# F. solani ATCC36031 = assay: microbe, parasite or virus in culture; type: cell-based; settings: Fusarium solani; F. solani ATCC36031
# [7] = Candida albicans, ATCC10231, Table 3, read-out: MIC in µM against Ca 10231
# [8] = Candida albicans, ATCC2091, Table 3, read-out: MIC in µM against Ca 2091
# [9] = Candida albicans, ATCC24433, Table 3, read-out: MIC in µM against Ca 24433
# [10] = Candida albicans, DF2672R, Table 3, read-out: MIC in µM against Ca 2672R
# [11] = Candida albicans, DF1976R, Table 3, read-out: MIC in µM against Ca DF1976R
# [12] = Homo sapiens, Epithelial cell, 24 h exposure, read-out: EC50 (effective concentration required to kill 50% of human conjunctival epithelial cells)
% Calcein released from PC/PE/PS/Erg [1] [%],MIC (C. albicans ATCC10231; [7]) [µM],MIC (C. albicans ATCC2091; [8]) [µM],MIC (C. albicans ATCC24433; [9]) [µM],MIC (C. albicans DF2672R [2]; [10]) [µM],MIC (C. albicans DF1976R; [11]) [µM],MIC [5] [µM],SMILES,HC50 (rabbit red blood cells) [µM],"EC50 [6, 12] [µM]",also measured
0,1.35,< 0.4,1.35,1.35,1.35,1.4,"C[C@@H]1[C@H](O)[C@@H](C)/C=C/C=C/C=C/C=C/C=C/C=C/C=C/[C@H](O[C@@H]2O[C@H](C)[C@@H](O)[C@H](N)[C@@H]2O)C[C@@H]2O[C@](O)(C[C@@H](O)C[C@@H](O)[C@H](O)CC[C@@H](O)C[C@@H](O)CC(=O)O[C@H]1C)C[C@H](O)[C@H]2C(=O)O [Amphotericin B, reference compound]",59.4 ± 7.8,134 ± 16,time to maximal effect (C. albicans DF2672R [3]; 16× MIC): less than 8 h; affinity for membrane bound ergosterol (ITC) [4]: strong affinity
~63,–,–,–,–,–,–,"CC(C)[C@H](NC(=O)[C@H](CCCCN)NC(=O)[C@H](C)NC(=O)CNC(=O)[C@@H](N)CCCNC(=N)N)C(=O)N[C@H](C(=O)N[C@@H](CCCNC(=N)N)C(=O)N[C@@H](CCCNC(=N)N)C(=O)NCCCC[C@H](NC(=O)[C@H](CCCNC(=N)N)NC(=O)[C@H](CCCNC(=N)N)NC(=O)[C@@H](NC(=O)[C@@H](NC(=O)[C@H](CCCCN)NC(=O)[C@H](C)NC(=O)CNC(=O)[C@@H](N)CCCNC(=N)N)C(C)C)C(C)C)C(=O)NCCCC[C@H](NC(=O)[C@H](CCCCNC(=O)[C@H](CCCNC(=N)N)NC(=O)[C@H](CCCNC(=N)N)NC(=O)[C@@H](NC(=O)[C@@H](NC(=O)[C@H](CCCCN)NC(=O)[C@H](C)NC(=O)CNC(=O)[C@@H](N)CCCNC(=N)N)C(C)C)C(C)C)NC(=O)[C@H](CCCNC(=N)N)NC(=O)[C@H](CCCNC(=N)N)NC(=O)[C@@H](NC(=O)[C@@H](NC(=O)[C@H](CCCCN)NC(=O)[C@H](C)NC(=O)CNC(=O)[C@@H](N)CCCNC(=N)N)C(C)C)C(C)C)C(=O)N[C@@H](CCCCN)C(=O)O)C(C)C [B4010_R3A] (I: H-RGAKVVRRKKK-OH / II: H-RGAKVVRRK / III: H-RGAKVVRR / IV: H-RGAKVVRR; amide I:9-IV:C, I:10-II:C, II:9-III:C; N-terminus and C-terminus assumed)",–,–,"MIC (C. albicans ATCC10231; ATCC10231, 48 h, read-out: MIC in µM against Ca 10231): 1.5 µM; MIC (C. albicans ATCC2091; ATCC2091, 48 h, read-out: MIC in µM against Ca 2091): 1.5 µM; MIC (C. albicans ATCC24433; ATCC24433, 48 h, read-out: MIC in µM against Ca 24433): 1.5 µM; MIC (C. albicans DF2672R [2]; DF2672R, 48 h, read-out: MIC in µM against Ca 2672R): 0.4 µM; MIC (C. albicans DF1976R; DF1976R, 48 h, read-out: MIC in µM against Ca DF1976R): 0.4 µM; EC50 [6]: > 237 µM; viability at 24 h, 237 µM (in vitro): 80.9%"
0,15,7.5,15,15,15,15,"C[C@@H]1C/C=C/C=C/C=C/C=C/[C@H](O[C@@H]2O[C@H](C)[C@@H](O)[C@H](N)[C@@H]2O)C[C@@H]2O[C@](O)(C[C@@H](O)C[C@H]3O[C@@H]3/C=C/C(=O)O1)C[C@H](O)[C@H]2C(=O)O [Natamycin, reference compound]",139.6 ± 0.18,212 ± 20.5,"MIC (C. albicans ATCC10231; Candida albicans, C. albicans ATCC10231, read-out: MIC): 15 µM; MIC (C. albicans ATCC2091; Candida albicans, C. albicans ATCC2091, read-out: MIC): 7.5 µM; MIC (C. albicans ATCC24433; Candida albicans, C. albicans ATCC24433, read-out: MIC): 15 µM; MIC (C. albicans DF2672R [2]; Candida albicans, C. albicans DF2672R, read-out: MIC): 15 µM; MIC (C. albicans DF1976R; Candida albicans, C. albicans DF1976R, read-out: MIC): 15 µM; time required to achieve similar endpoints (4 log reduction) (C. albicans ATCC 10231): 24 h; fungicidal action (C. albicans DF2672R [3]; 2× MIC, 24 h exposure): no fungicidal action; MIC (F. solani DF1500): 2.4 µM; MIC (F. solani DM3782): 2.4 µM; MIC (F. solani ATCC36031): 4.7 µM"
